Results taken from patent US10086335B2, “Composition and method for biofouling inhibition of membrane separation device” (Ecolab USA Inc., priority 2013, dated 2018).

How the values were obtained:
[1] = Total chlorine and free chlorine concentration by DPD method; assay type: physicochemical; conditions: for free chlorine (FRC) concentration: sulfamic acid:sodium hypochlorite 1.2:1, pH >12
Excerpt: The total chlorine concentration (amount) can be detected according to the following method. The combined chlorine can oxidize the iodide into iodine. The iodine and free chlorine can react with DPD (N,N-Diethyl-p-phenylenediamine) to form a red substance, and which can be used to represent the concentration of the total chlorine (using the absorbance obtained at 530 nm measurement to represent the concentration of total chlorine). The above free chlorine concentration (amount) may be determined by the following method. The free chlorine which may exist in the form of hypochlorous acid or ions of hypochlorite can react with DPD (N, N-Diethyl-p-phenylenediamine) indicator rapidly to form a pink-colored substance, and the strength of such color can be used to indicate the amount of free chlorine, for example the concentration of free chlorine is determined by the measurements of absorbance on 530 nm. The combined chlorine concentration in water is calculated by subtracting free chlorine concentration from total chlorine concentration (i.e., TRC-FRC). In the present invention, TRC and FRC are measured for example by HACH DR2800 spectrophotometer.
In order to further reduce the FRC, the second stabilizer ammonium sulfate was used in the present example. In the present example, 67 g sodium hypochlorite and 13 g sulfamic acid (sulfamic acid ≥99.5%, AR, Sinopharm Chemical Reagent Co. Ltd.) were first added to 20 g water. The molar ratio between sulfamic acid and sodium hypochlorite was 1.2 to 1. Then the pH was adjusted to more than 12 by sodium hydroxide. According to the addition amount of sodium hypochlorite, the different molar ratios of second stabilizer ammonium sulfates were added. After the solution was uniformly mixed, DPD and iodine were used to determine the TC concentration and DPD was used to determine the FRC concentration.
In the present example, the second stabilizer ammonium sulfate was used in dilute solution to research the reducing effect on FRC. In the present example, 67 g sodium hypochlorite and 13 g sulfamic acid (sulfamic acid ≥99.5%, AR, Sinopharm Chemical Reagent Co. Ltd.) were first added to 3020 g water. The molar ratio between sulfamic acid and sodium hypochlorite was 1.2 to 1. Comparing to the concentration of the sodium hypochlorite and sulfamic acid of the example 1, that of the example 2 was diluted to about 30 times. Then the pH was adjusted to more than 12 by sodium hydroxide. According to the addition amount of sodium hypochlorite, the different molar ratios of second stabilizer ammonium sulfates were added. After the solution was mixed uniformly, DPD and iodine were used to determine the TC concentration and DPD was used to determine the FRC concentration.

[2] = tested on: floating bacteria in water; assay: Bactericidal effect on the bacteria in water (Total Bacteria Count); conditions: raw water; total chlorine 2 ppm and 10 ppm; 3 hours and 24 hours; FIG. 3
Procedure: This example is mainly focused on using the present method or combination to inhibit the floating bacteria in water. The raw water without adding any biocides was used as the control group. The total chlorine concentration in water was controlled at 2 ppm and 10 ppm, separately. Sodium hypochlorite and two kinds of stabilizers were added to the raw water and sample obtained was used as the experimental group (dual stabilizers). Moreover, the group wherein only sodium hypochlorite was added was the control experimental group 1 (Cl2) and the group wherein sodium hypochlorite and one stabilizer were added to the raw water was the control experimental group 2 (single stabilizer). In the control experimental group 1 and 2, the total chlorine concentrations were controlled at 2 ppm and 10 ppm, separately. The addition method of the above substances and the substances used were identical to the examples 1 or 2. […] After placing the control group, the control experimental group 1, 2 and the experimental group for 3 hours and 24 hours, the number of the bacteria in the water of these samples were determined and compared. The bacterial number was indicated by the Total Bacteria Count (sometimes abbreviated as TBC in the following description), which was determined by referencing the method of 3M™ Petrifilm™ Aerobic Count Plates.

| SMILES | free chlorine (FRC) concentration ([1]; concentrated solution, 0.3 moles second stabilizer per 1 mole sodium hypochlorite, reduced from 1200 ppm, FIG. 1) | effect on total chlorine ([1]; concentrated solution, 0.3 moles second stabilizer per 1 mole sodium hypochlorite, FIG. 1) | free chlorine (FRC) concentration ([1]; dilute solution, 0.4 moles second stabilizer per 1 mole sodium hypochlorite, reduced from about 50 ppm, FIG. 2) | effect on total chlorine amount ([1]; dilute solution, 0.4 moles second stabilizer per 1 mole sodium hypochlorite, FIG. 2) | bactericidal effect (Total Bacteria Count) [2] |
| --- | --- | --- | --- | --- | --- |
| N.N.O=S(=O)(O)O [second stabilizer, ammonium sulfate] | about 40 ppm | without affecting the total chlorine | about 20 ppm | without affecting the total chlorine amount | – |
| OCl [sodium hypochlorite] | – | – | – | – | strongest bactericidal effect |
